In patent US8518964B2, “Tricyclic compounds useful as inhibitors of kinases” (Merck Sharp & Dohme Corp., priority 2006, dated 2013):

Molecular target: T1, IKKβ (Homo sapiens, UniProt O14920)
T1 construct: His; made in house; host or cells: SF9 insect cells (baculovirus, pVL1393 transfer vector)
T1 sequence (O14920 1-756): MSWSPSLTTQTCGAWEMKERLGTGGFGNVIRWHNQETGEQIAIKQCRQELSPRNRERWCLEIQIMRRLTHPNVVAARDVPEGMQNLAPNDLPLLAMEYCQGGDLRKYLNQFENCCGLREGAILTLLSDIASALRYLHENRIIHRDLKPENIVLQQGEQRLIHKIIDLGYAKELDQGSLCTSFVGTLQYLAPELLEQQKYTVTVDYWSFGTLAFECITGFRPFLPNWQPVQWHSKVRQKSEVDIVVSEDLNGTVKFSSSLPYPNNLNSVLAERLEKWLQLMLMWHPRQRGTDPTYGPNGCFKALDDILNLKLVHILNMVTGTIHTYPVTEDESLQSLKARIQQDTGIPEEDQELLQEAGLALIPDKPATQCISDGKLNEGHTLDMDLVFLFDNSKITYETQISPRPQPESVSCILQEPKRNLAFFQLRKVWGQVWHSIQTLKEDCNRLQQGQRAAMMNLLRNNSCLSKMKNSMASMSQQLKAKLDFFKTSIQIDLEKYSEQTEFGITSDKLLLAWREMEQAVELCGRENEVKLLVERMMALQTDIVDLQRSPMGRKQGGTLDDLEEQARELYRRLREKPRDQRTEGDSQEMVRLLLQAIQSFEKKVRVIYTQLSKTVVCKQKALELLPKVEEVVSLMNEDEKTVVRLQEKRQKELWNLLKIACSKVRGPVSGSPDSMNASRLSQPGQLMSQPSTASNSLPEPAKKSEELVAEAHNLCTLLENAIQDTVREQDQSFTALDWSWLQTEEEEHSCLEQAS
Assay: Homogenous Time Resolved Fluorescence (HTRF) assay for IKK inhibitory activity
Assay type: biochemical
Details: read-out: IKKβIC50
Excerpt: Homogenous Time Resolved Fluorescence (HTRF) Assay for IKK Inhibitory Activity.
This enzyme assay monitors the inhibitory potency of the compounds of Formula I and II to block the catalytic activity of IKKα and IKKβ in vitro. The full-length coding sequences of IKKα and IKKβ are subcloned into the appropriate site of pVL1393 (Pharmingen) to construct a baculovirus transfer vector. Recombinant baculovirus was generated from vector-transfected SF9 cells (BaculoGold™, Invitrogen), cloned, amplified and used to infect SF9 cells for protein production. Recombinant His-tagged IKKα and IKKβ are isolated from the Baculovirus-infected SF9 cells expressing the fusion protein.
An HTRF assay in a 384-well format established on a Biomek FX is used to test the inhibitory activity of compounds of Formula I. The peptide substrate, biotin-DRHDSGLDSMKDE (SEQ. ID.: 1) used to assay IKKβ activity spans residues 28 to 40 of IκBα and was custom synthesized (Synpep). A biotinylated peptide that spans residues 21 to 40 of Iκbα, […] (SEQ. ID.: 2), was used as substrate for IKKα. The assay conditions used to test inhibitory activity of compounds against IKKβ comprises 110 nM recombinant enzyme, 150 nM peptide substrate, 6 μM ATP, 10% (v/v) DMSO, 15 mM MgCl2, 2 mM DTT, and 50 mM Tris/HCl at a pH of 7.5. For IKKα, the reaction mixture comprises 125 nM recombinant enzyme, 400 nM peptide substrate, 6 μM ATP, 10% (v/v) DMSO, 15 mM MgCl2, 2 mM DTT, and 50 mM Tris/HCl at a pH of 7.5. The kinase reaction proceeds for 20 and 35 min for IKKα and IKKβ respectively and then it is quenched by the addition of EDTA to a final concentration of 20 mM. Following completion of the kinase assay, 5 μL of the reaction is quantified by HTRF with a 5 μL detection mix comprising 40 mM HEPES, 100 mM KF, 27.7 nM Streptavidin-tagged-XL665-XLent (CIS-Bio international), 0.3 nM anti-phospho-IκBα mAb (Cell signaling), 1 nM anti-phospho peptide antibody conjugated to Eu (CIS-Bio international). Following excitation at 330 nm, the 665 nm/615 nm emission ratio is measured after a 2-hour incubation at room temperature to quantify the FRET signal.

Row | IC50 | SMILES
1 | ≤ 500 nM | NC(=O)c1cnc(N)c2c1sc1cc(/C=C/c3ccc(F)cc3)ccc12 [Example 16, 1-Amino-7-[(E)-2-(4-fluorophenyl)vinyl][1]benzothieno[3,2-c]pyridine-4-carboxamide]
2 | ≤ 1000 nM | CCCCNc1ncc(C(N)=O)c2[nH]c3ccc(F)cc3c12 [Example 8, 1-(Butylamino)-8-fluoro-5H-pyrido[4,3-b]indole-4-carboxamide]
3 | ≤ 1000 nM | NC(=O)c1cnc(N)c2c1[nH]c1ccc(F)cc12 [Example 6, 1-Amino-8-fluoro-5H-pyrido[4,3-b]indole-4-carboxamide]
4 | ≤ 500 nM | CN(C)Cc1ccc(-c2ccc3c(c2)sc2c(C(N)=O)cnc(N)c23)cc1 [Example 21, 1-Amino-7-{4-[(dimethylamino)methyl]phenyl}[1]benzothieno[3,2-c]pyridine-4-carboxamide]
5 | ≤ 1000 nM | NC(=O)c1cnc(N)c2c1sc1c(-c3ccccc3)cccc12 [Example 4, 1-Amino-6-phenyl[1]benzothieno[3,2-c]pyridine-4-carboxamide]
6 | ≤ 100 nM | NC(=O)c1cnc(N)c2c1[nH]c1c(Cl)cccc12 [Example 25, 1-Amino-6-chloro-5H-pyrido[4,3-b]indole-4-carboxamide]
7 | ≤ 1000 nM | NC(=O)c1cnc(N)c2c1sc1c(Cl)cccc12 [Example 3, 1-Amino-6-chloro[1]benzothieno[3,2-c]pyridine-4-carboxamide]
8 | ≤ 100 nM | NC(=O)c1cnc(N)c2c1[nH]c1cc(C(F)(F)F)ccc12 [Example 5, 1-Amino-7-(trifluoromethyl)-5H-pyrido[4,3-b]indole-4-carboxamide]
9 | ≤ 1000 nM | NC(=O)c1cnc(N)c2c1[nH]c1ccc(Br)cc12 [Example 11, 1-Amino-8-bromo-5H-pyrido[4,3-b]indole-4-carboxamide]
10 | ≤ 500 nM | NC(=O)c1cnc(N2CCC3(CC2)OCc2ccccc23)c2c1[nH]c1ccc(F)cc12 [Example 9, 8-Fluoro-1-(1′H,3H-spiro[2-benzofuran-1,4′-piperidin]-1′-yl)-5H-pyrido[4,3-b]indole-4-carboxamide]
